Reference: patent US8563729B2, “Thienopyridone derivatives as AMP-activated protein kinase (AMPK) activators” (Merck Patent GmbH, priority 2008, dated 2013)

Each compound was assayed against T1, AMPK protein (recombinant α1β1γ2) (Homo sapiens, UniProt Q13131+Q9Y478) (assay: AMPK enzymatic activity (Delfia, AMARA peptide substrate)). Conditions: compound 30 μM vs AMP 30 μM; 125 μM ATP; ratio 90% or higher = direct activator.
T1 construct: made in house; host or cells: E. coli
Format: biochemical
Experimental: The following biological test allows the determination of the efficacy of such compounds of formula (I) onto AMPK protein (recombinant α1β1γ2).
Human recombinant AMPK enzyme was expressed in E. Coli and was reactivated in vitro by LKB1 prior to enzyme activity determination.
AMPK enzyme activities were assayed by using A Delfia technology. AMPK enzyme activities were carried out in microtiter plates (50 mM Hepes buffer, pH 7.4 with 125 μM ATP respectively) in the presence of a synthetic peptide substrate (AMARAASAAALARRR, the “AMARA” peptide) and activators in serial dilutions. Reactions were initiated by the addition of AMPK (50-100 ng). Following mixing, the plates were incubated for 30 min at room temperature. Enzyme activity was assayed by using an anti-phosphoserine antibody to measure the quantity of phosphate incorporated into the AMARAA.
N°: Number of the molecule
Activity: Ratio between the % of control (basal activity) of compound of formula (I) at 30 μM and the % of control (basal activity) of AMP (natural substrate) at 30 μM.
Compounds of formula (I) in the table II are considered as direct activator of AMPK if the ratio is 90% or higher.

T1 sequence (Q13131 whole entry): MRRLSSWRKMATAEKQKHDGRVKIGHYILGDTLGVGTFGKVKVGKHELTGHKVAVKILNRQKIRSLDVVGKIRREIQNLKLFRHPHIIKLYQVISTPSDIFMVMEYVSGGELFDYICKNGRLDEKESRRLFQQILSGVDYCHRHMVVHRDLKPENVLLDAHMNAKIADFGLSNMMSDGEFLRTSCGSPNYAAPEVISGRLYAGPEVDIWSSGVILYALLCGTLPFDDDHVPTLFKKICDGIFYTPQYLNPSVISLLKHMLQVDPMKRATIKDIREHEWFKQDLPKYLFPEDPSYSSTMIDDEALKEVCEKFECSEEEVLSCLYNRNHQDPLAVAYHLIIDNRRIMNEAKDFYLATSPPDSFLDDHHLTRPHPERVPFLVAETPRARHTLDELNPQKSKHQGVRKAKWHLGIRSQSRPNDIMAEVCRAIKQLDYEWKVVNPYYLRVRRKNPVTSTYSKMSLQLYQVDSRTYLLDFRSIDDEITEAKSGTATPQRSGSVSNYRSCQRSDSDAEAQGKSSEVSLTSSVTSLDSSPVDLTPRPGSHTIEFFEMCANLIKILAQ
T1 sequence (Q9Y478 whole entry): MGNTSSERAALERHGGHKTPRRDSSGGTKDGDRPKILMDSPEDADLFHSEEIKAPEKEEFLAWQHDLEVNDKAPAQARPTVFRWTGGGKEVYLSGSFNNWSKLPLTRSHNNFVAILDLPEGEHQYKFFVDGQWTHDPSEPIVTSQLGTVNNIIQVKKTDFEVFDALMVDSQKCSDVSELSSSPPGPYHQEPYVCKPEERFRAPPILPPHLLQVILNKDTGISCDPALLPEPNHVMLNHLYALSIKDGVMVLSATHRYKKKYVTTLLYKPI
T1 sequence (Q9UGJ0 whole entry partner): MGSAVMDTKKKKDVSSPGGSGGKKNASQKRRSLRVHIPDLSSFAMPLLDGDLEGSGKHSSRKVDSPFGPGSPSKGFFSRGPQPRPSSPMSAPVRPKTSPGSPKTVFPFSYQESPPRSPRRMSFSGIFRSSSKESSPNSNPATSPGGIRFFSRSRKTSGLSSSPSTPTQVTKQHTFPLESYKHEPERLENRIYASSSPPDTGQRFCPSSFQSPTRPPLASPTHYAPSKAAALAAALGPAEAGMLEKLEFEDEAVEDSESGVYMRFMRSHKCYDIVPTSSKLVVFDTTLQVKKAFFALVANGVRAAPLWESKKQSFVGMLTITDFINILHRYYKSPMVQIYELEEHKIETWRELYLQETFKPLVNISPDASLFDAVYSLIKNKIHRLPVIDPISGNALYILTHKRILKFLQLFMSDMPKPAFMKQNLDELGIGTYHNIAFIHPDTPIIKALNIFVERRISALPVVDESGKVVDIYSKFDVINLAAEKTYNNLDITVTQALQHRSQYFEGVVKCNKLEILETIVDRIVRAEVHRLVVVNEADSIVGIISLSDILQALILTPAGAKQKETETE

Point of comparison: `O=C(O)c1sc2[nH]c(=O)c(-c3ccccc3)c(O)c2c1-c1ccccc1` [Compound 3], “activity: Ratio between the % of control (basal activity) of compound of formula (I) at 30 μM and the % of control (basal activity) of AMP at 30 μM” value 102%. Against it:
- O=c1[nH]c2scc(-c3ccccc3)c2c(O)c1-c1ccccc1 [Compound 16] — higher, 107%
- O=c1[nH]c2scc(-c3ccc(Br)cc3)c2c(O)c1-c1ccccc1 [Compound 25] — higher, 119%
- O=c1[nH]c2scc(-c3ccc(Br)cc3)c2c(O)c1-c1cccnc1 [Compound 28] — higher, 109%
- O=c1[nH]c2scc(-c3ccc(Br)cc3)c2c(O)c1-c1ccncc1 [Compound 29] — higher, 103%
- COc1ccc(-c2csc3[nH]c(=O)c(-c4ccccc4)c(O)c23)cc1 [Compound 32] — higher, 147%
- O=c1[nH]c2scc(-c3ccc(CO)cc3)c2c(O)c1-c1ccccc1 [Compound 38] — higher, 119%
- COc1ccc(-c2c(O)c3c(-c4ccc(OC)cc4)csc3[nH]c2=O)cc1 [Compound 40] — higher, 109%
- O=c1[nH]c2scc(-c3ccc(O)cc3)c2c(O)c1-c1ccc(O)cc1 [Compound 41] — lower, 92%
- COc1ccc(-c2csc3[nH]c(=O)c(-c4ccc(F)cc4)c(O)c23)cc1 [Compound 42] — higher, 110%
- COc1ccc(-c2c(O)c3c(-c4ccc(F)cc4)csc3[nH]c2=O)cc1 [Compound 44] — lower, 98%
- O=c1[nH]c2scc(-c3ccc(F)cc3)c2c(O)c1-c1ccc(O)cc1 [Compound 45] — higher, 114%
- O=c1[nH]c2scc(-c3cccc(O)c3)c2c(O)c1-c1ccccc1 [Compound 48] — higher, 109%
- O=c1[nH]c2scc(-c3cccc(F)c3)c2c(O)c1-c1ccccc1 [Compound 49] — higher, 131%
- Cc1cccc(-c2csc3[nH]c(=O)c(-c4ccccc4)c(O)c23)c1 [Compound 50] — higher, 103%
- O=c1[nH]c2scc(-c3cccc(CO)c3)c2c(O)c1-c1ccccc1 [Compound 52] — higher, 176%
- O=c1[nH]c2scc(-c3ccccc3O)c2c(O)c1-c1ccccc1 [Compound 55] — higher, 146%
- O=c1[nH]c2scc(-c3ccccc3F)c2c(O)c1-c1ccccc1 [Compound 56] — higher, 107%
- O=c1[nH]c2scc(-c3ccccc3Cl)c2c(O)c1-c1ccccc1 [Compound 58] — higher, 103%
- COc1ccc(-c2csc3[nH]c(=O)c(-c4ccccc4)c(O)c23)c(OC)c1 [Compound 60] — lower, 100%
- O=c1[nH]c2scc(-c3ccc(O)cc3O)c2c(O)c1-c1ccccc1 [Compound 61] — higher, 146%
- O=c1[nH]c2scc(-c3ccc(O)cc3F)c2c(O)c1-c1ccccc1 [Compound 62] — lower, 101%
- O=c1[nH]c2scc(-c3ccc(F)cc3F)c2c(O)c1-c1ccccc1 [Compound 64] — higher, 109%
- O=c1[nH]c2scc(-c3ccc(F)cc3O)c2c(O)c1-c1ccccc1 [Compound 66] — higher, 144%
- O=c1[nH]c2scc(-c3cc(O)cc(O)c3)c2c(O)c1-c1ccccc1 [Compound 68] — lower, 96%
- COc1ccc(-c2csc3[nH]c(=O)c(-c4ccccc4)c(O)c23)cc1F [Compound 71] — higher, 131%
- O=c1[nH]c2scc(-c3ccc(O)c(F)c3)c2c(O)c1-c1ccccc1 [Compound 72] — higher, 150%
- COc1cc(-c2csc3[nH]c(=O)c(-c4ccccc4)c(O)c23)ccc1Br [Compound 73] — lower, 94%
- O=c1[nH]c2scc(-c3ccc(Br)c(O)c3)c2c(O)c1-c1ccccc1 [Compound 74] — higher, 112%
- O=c1[nH]c2scc(-c3cc(F)ccc3O)c2c(O)c1-c1ccccc1 [Compound 75] — higher, 135%
- O=c1[nH]c2scc(-c3ccc(Br)cc3O)c2c(O)c1-c1ccccc1 [Compound 77] — higher, 257%
- O=c1[nH]c2scc(-c3c(F)cccc3F)c2c(O)c1-c1ccccc1 [Compound 78] — higher, 160%
- COc1ccc(O)c(-c2csc3[nH]c(=O)c(-c4ccccc4)c(O)c23)c1 [Compound 79] — higher, 593%
- COc1ccc(-c2csc3[nH]c(=O)c(-c4ccccc4)c(O)c23)c(O)c1 [Compound 81] — higher, 223%
- COc1cc(-c2csc3[nH]c(=O)c(-c4ccccc4)c(O)c23)ccc1C [Compound 84] — higher, 158%
- Cc1ccc(-c2csc3[nH]c(=O)c(-c4ccccc4)c(O)c23)cc1O [Compound 85] — higher, 406%
- Cc1ccc(-c2csc3[nH]c(=O)c(-c4cccc(C#N)c4)c(O)c23)c(O)c1 [Compound 87] — higher, 287%
- COc1cc(C)ccc1-c1c(Cl)sc2[nH]c(=O)c(-c3ccccc3)c(O)c12 [Compound 105] — higher, 206%
- O=c1[nH]c2sc(Cl)c(-c3c(F)cccc3F)c2c(O)c1-c1ccccc1 [Compound 106, 2-chloro-3-(2,6-diflurophenyl)-4-hydroxy-5-phenyl-6,7-dihydro-thieno[2,3-b]pyridin-6-one] — higher, 115%
- COc1ccc(-c2c(Cl)sc3[nH]c(=O)c(-c4ccccc4)c(O)c23)cc1F [Compound 110] — higher, 121%
- O=c1[nH]c2sc(Cl)c(-c3cc(Cl)c(O)cc3F)c2c(O)c1-c1ccccc1 [Compound 113] — lower, 95%
- O=c1[nH]c2sc(Cl)c(-c3ccc(F)cc3F)c2c(O)c1-c1ccccc1 [Compound 114] — higher, 115%
- O=c1[nH]c2sc(Cl)c(-c3ccc(O)cc3F)c2c(O)c1-c1ccccc1 [Compound 116] — higher, 120%
- O=c1[nH]c2sc(Cl)c(-c3cccc(CO)c3)c2c(O)c1-c1ccccc1 [Compound 124] — higher, 195%
- O=C(O)c1cccc(-c2c(O)c3c(-c4ccc(F)cc4)c(Cl)sc3[nH]c2=O)c1 [Compound 130] — higher, 117%
- O=c1[nH]c2sc(Cl)c(-c3ccc(O)cc3)c2c(O)c1-c1ccc(F)cc1 [Compound 132] — higher, 108%
- CCCCc1ccc(-c2c(Cl)sc3[nH]c(=O)c(-c4ccccc4)c(O)c23)cc1 [Compound 134] — lower, 93%
- Cc1ccc(-c2c(Cl)sc3[nH]c(=O)c(-c4ccccc4)c(O)c23)cc1 [Compound 135] — higher, 113%
- CNC(=O)c1cccc(-c2c(O)c3c(-c4ccccc4)c(Cl)sc3[nH]c2=O)c1 [Compound 141] — higher, 403%
- N=C(N)c1cccc(-c2c(O)c3c(-c4ccccc4)c(Cl)sc3[nH]c2=O)c1 [Compound 142] — higher, 126%
- CS(=O)(=O)c1cccc(-c2c(O)c3c(-c4ccccc4)c(Cl)sc3[nH]c2=O)c1 [Compound 145] — lower, 90%
